We go through four compounds from US10604554B2, “Double-acylated GLP-1 derivatives” (Novo Nordisk A/S, priority 2012, dated 2020).

Experiment [1] deals with T1, human GLP-1 receptor (Homo sapiens, UniProt P43220).
T1 construct: expressed in transfected cells; host or cells: BHK cells, clone FCW467-12A/KZ10-1 (parent line BHKTS13), further transfected with CRE luciferase
As to the kind of experiment: In vitro potency (CRE luciferase; whole cells). The settings on record: for EC50: BHK cells; for EC50/pM (ratio 1% HSA/0% HSA): ratio of EC50 at 1% HSA to EC50 at 0% HSA. The arrangement: EC50/pM (ratio 1% HSA/0% HSA): unit not given here. The format is cell-based. An outline of the steps: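 Reporter: CRE-luciferase in BHK cells stably expressing human GLP-1R, 5×10^3 cells/well; compounds tested in buffer containing 0% or 1% HSA.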

The target in experiment [2] is T1, human GLP-1 receptor. As to the kind of experiment: GLP-1 receptor binding (SPA, displacement of 125I-GLP-1). In short, it runs like this: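 Tracer [125I]-GLP-1(7-36)NH2 at 0.06 nM final competed on hamster stably transfected cell membranes captured by WGA SPA beads; 120 min, 30 °C, scintillation count.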
(In general: In a radioligand displacement assay an active substance lowers the binding of a labelled ligand.)

Setting [3] is: In vitro potency (CRE luciferase) EC50 (1% HSA), 1% HSA.
Where [4] appears, read: In vitro potency (CRE luciferase) EC50 (0% HSA), 0% HSA.
Setting [5] is: Receptor binding affinity IC50 (high HSA), 2.0% HSA (high albumin).
[6] abbreviates: Receptor binding affinity IC50 (low HSA), 0.001% HSA (low albumin).

Read-outs that look alike come from different tables or passages of the source.

One may read the EC50 as the midpoint of the concentration-response curve. In general, IC50 refers to the concentration needed to halve the response being measured.

T1 sequence (P43220 24-463): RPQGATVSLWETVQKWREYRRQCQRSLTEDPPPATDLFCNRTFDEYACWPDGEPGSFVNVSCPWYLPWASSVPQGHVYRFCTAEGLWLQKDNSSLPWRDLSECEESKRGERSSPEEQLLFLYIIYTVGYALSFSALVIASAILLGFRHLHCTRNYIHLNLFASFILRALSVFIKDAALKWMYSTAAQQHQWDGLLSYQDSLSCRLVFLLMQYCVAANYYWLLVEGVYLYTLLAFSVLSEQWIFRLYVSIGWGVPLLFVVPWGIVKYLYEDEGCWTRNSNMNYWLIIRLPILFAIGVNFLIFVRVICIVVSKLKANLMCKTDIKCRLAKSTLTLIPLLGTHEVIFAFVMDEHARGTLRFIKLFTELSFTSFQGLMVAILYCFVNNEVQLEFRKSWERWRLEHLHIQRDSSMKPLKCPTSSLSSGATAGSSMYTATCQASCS

Regarding `CC[C@H](C)[C@H](NC(=O)[C@H](Cc1ccccc1)NC(=O)[C@H](CCC(=O)O)NC(=O)[C@H](CCCCNC(=O)[C@@H](N)CCCCNC(=O)CC[C@H](NC(=O)CC[C@H](NC(=O)CC[C@H](NC(=O)CCCCCCCCCCCCCCC(=O)O)C(=O)O)C(=O)O)C(=O)O)NC(=O)[C@H](C)NC(=O)[C@H](C)NC(=O)[C@H](CCC(N)=O)NC(=O)CNC(=O)[C@H](CCC(=O)O)NC(=O)[C@H](CC(C)C)NC(=O)[C@H](Cc1ccc(O)cc1)NC(=O)[C@H](CO)NC(=O)[C@H](CO)NC(=O)[C@@H](NC(=O)[C@H](CC(=O)O)NC(=O)[C@H](CO)NC(=O)[C@@H](NC(=O)[C@H](Cc1ccccc1)NC(=O)[C@@H](NC(=O)CNC(=O)[C@H](CCC(=O)O)NC(=O)C(C)(C)NC(=O)[C@@H](N)Cc1c[nH]cn1)[C@@H](C)O)[C@@H](C)O)C(C)C)C(=O)N[C@@H](C)C(=O)N[C@@H](Cc1c[nH]c2ccccc12)C(=O)N[C@@H](CC(C)C)C(=O)N[C@H](C(=O)N[C@@H](CCCNC(=N)N)C(=O)NCC(=O)N[C@@H](CCCNC(=N)N)C(=O)N[C@@H](CCCCNC(=O)[C@@H](N)CCCCNC(=O)CC[C@H](NC(=O)CC[C@H](NC(=O)CC[C@H](NC(=O)CCCCCCCCCCCCCCC(=O)O)C(=O)O)C(=O)O)C(=O)O)C(=O)O)C(C)C` [Example 13, N^ε26-[(2S)-2-amino-6-[[(4S)-4-carboxy-4-[[(4S)-4-carboxy-4-[[(4S)-4-carboxy-4-(15-carboxypentadecanoylamino)butanoyl]amino]butanoyl]amino]butanoyl]amino]hexanoyl], N^ε37-[(2S)-2-amino-6-[[(4S)-4-carboxy-4-[[(4S)-4-carboxy-4-[[(4S)-4-carboxy-4-(15-carboxypentadecanoylamino)butanoyl]amino]butanoyl]amino]butanoyl]amino]hexanoyl]-[Aib^8,Arg^34,Lys^37]-GLP-1-(7-37)-peptide], the EC50 was found to be 0.0022 nM on human GLP-1 receptor [1] (0% HSA, read-out: In vitro potency (CRE luciferase) EC50 (0% HSA)) and 1.38 nM at human GLP-1 receptor [1] (setting [3]). For the same compound, at human GLP-1 receptor [1], the “EC50/pM (ratio 1% HSA/0% HSA)” value stood at 659. For the same compound, the IC50 on human GLP-1 receptor [2] (0.001% HSA (low albumin), read-out: Receptor binding affinity IC50 (low HSA)) was determined as 0.76 nM. Moreover, the IC50 (high HSA) at human GLP-1 receptor [2] (Receptor binding affinity IC50 (high HSA), 2.0% HSA (high albumin), heading: Receptor binding affinity IC50) came to 545 nM.

With `CC[C@H](C)[C@H](NC(=O)[C@H](Cc1ccccc1)NC(=O)[C@H](CCC(=O)O)NC(=O)[C@H](CCCCNC(=O)[C@@H](N)CCCCNC(=O)COCCOCCNC(=O)COCCOCCNC(=O)CC[C@H](NC(=O)CCCCCCCCCCCOc1ccc(C(=O)O)cc1)C(=O)O)NC(=O)[C@H](C)NC(=O)[C@H](C)NC(=O)[C@H](CCC(N)=O)NC(=O)CNC(=O)[C@H](CCC(=O)O)NC(=O)[C@H](CC(C)C)NC(=O)[C@H](Cc1ccc(O)cc1)NC(=O)[C@H](CO)NC(=O)[C@H](CO)NC(=O)[C@@H](NC(=O)[C@H](CC(=O)O)NC(=O)[C@H](CO)NC(=O)[C@@H](NC(=O)[C@H](Cc1ccccc1)NC(=O)[C@@H](NC(=O)CNC(=O)[C@H](CCC(=O)O)NC(=O)C(C)(C)NC(=O)[C@@H](N)Cc1c[nH]cn1)[C@@H](C)O)[C@@H](C)O)C(C)C)C(=O)N[C@@H](C)C(=O)N[C@@H](Cc1c[nH]c2ccccc12)C(=O)N[C@@H](CC(C)C)C(=O)N[C@H](C(=O)N[C@@H](CCCNC(=N)N)C(=O)NCC(=O)N[C@@H](CCCNC(=N)N)C(=O)N[C@@H](CCCCNC(=O)[C@@H](N)CCCCNC(=O)COCCOCCNC(=O)COCCOCCNC(=O)CC[C@H](NC(=O)CCCCCCCCCCCOc1ccc(C(=O)O)cc1)C(=O)O)C(=O)O)C(C)C` [Example 14, N^ε26-[(2S)-2-amino-6-[[2-[2-[2-[[2-[2-[2-[[(4S)-4-carboxy-4-[12-(4-carboxyphenoxy)dodecanoylamino]butanoyl]amino]ethoxy]ethoxy]acetyl]amino]ethoxy]ethoxy]acetyl]amino]hexanoyl], N^ε37-[(2S)-2-amino-6-[[2-[2-[2-[[2-[2-[2-[[(4S)-4-carboxy-4-[12-(4-carboxyphenoxy)dodecanoylamino]butanoyl]amino]ethoxy]ethoxy]acetyl]amino]ethoxy]ethoxy]acetyl]amino]hexanoyl]-[Aib^8,Arg^34, Lys^37]-GLP-1-(7-37)-peptide], the concentration for a half-maximal effect (EC50) at human GLP-1 receptor [1] (setting [4]) was determined as 0.0048 nM; on human GLP-1 receptor [1] (setting [3]) it was 0.076 nM. Besides, the “EC50/pM (ratio 1% HSA/0% HSA)” value on human GLP-1 receptor [1] worked out at 16. Also, the IC50 on human GLP-1 receptor [2] (setting [5]) was found to be 154 nM; at human GLP-1 receptor [2] (setting [6]), 0.3 nM.

With `CC[C@H](C)[C@H](NC(=O)[C@H](Cc1ccccc1)NC(=O)[C@H](CCC(=O)O)NC(=O)[C@H](CCCCNC(=O)[C@@H](N)CCCCNC(=O)COCCOCCNC(=O)CC[C@H](NC(=O)CC[C@H](NC(=O)CCCCCCCCCCCOc1ccc(C(=O)O)cc1)C(=O)O)C(=O)O)NC(=O)[C@H](C)NC(=O)[C@H](C)NC(=O)[C@H](CCC(N)=O)NC(=O)CNC(=O)[C@H](CCC(=O)O)NC(=O)[C@H](CC(C)C)NC(=O)[C@H](Cc1ccc(O)cc1)NC(=O)[C@H](CO)NC(=O)[C@H](CO)NC(=O)[C@@H](NC(=O)[C@H](CC(=O)O)NC(=O)[C@H](CO)NC(=O)[C@@H](NC(=O)[C@H](Cc1ccccc1)NC(=O)[C@@H](NC(=O)CNC(=O)[C@H](CCC(=O)O)NC(=O)C(C)(C)NC(=O)[C@@H](N)Cc1c[nH]cn1)[C@@H](C)O)[C@@H](C)O)C(C)C)C(=O)N[C@@H](C)C(=O)N[C@@H](Cc1c[nH]c2ccccc12)C(=O)N[C@@H](CC(C)C)C(=O)N[C@H](C(=O)N[C@@H](CCCNC(=N)N)C(=O)NCC(=O)N[C@@H](CCCNC(=N)N)C(=O)N[C@@H](CCCCNC(=O)[C@@H](N)CCCCNC(=O)COCCOCCNC(=O)CC[C@H](NC(=O)CC[C@H](NC(=O)CCCCCCCCCCCOc1ccc(C(=O)O)cc1)C(=O)O)C(=O)O)C(=O)O)C(C)C` [Example 15, N^ε26-[(2S)-2-amino-6-[[2-[2-[2-[[(4S)-4-carboxy-4-[[(4S)-4-carboxy-4-[12-(4-carboxyphenoxy)dodecanoylamino]butanoyl]amino]butanoyl]amino]ethoxy]ethoxy]acetyl]amino]hexanoyl], N^ε37-[(2S)-2-amino-6-[[2-[2-[2-[[(4S)-4-carboxy-4-[[(4S)-4-carboxy-4-[12-(4-carboxyphenoxy)dodecanoylamino]butanoyl]amino]butanoyl]amino]ethoxy]ethoxy]acetyl]amino]hexanoyl]-[Aib^8,Arg^34,Lys^37]-GLP-1-(7-37)-peptide], the EC50 at human GLP-1 receptor [1] (setting [4]) came out at 0.0037 nM; on human GLP-1 receptor [1] (setting [3]) it was 0.327 nM. The “EC50/pM (ratio 1% HSA/0% HSA)” value on human GLP-1 receptor [1] amounted to 93. The IC50 on human GLP-1 receptor [2] (setting [5]) was 303 nM; at human GLP-1 receptor [2] (setting [6]), 0.35 nM.

Turning to `CC[C@H](C)[C@H](NC(=O)[C@H](Cc1ccccc1)NC(=O)[C@H](CCC(=O)O)NC(=O)[C@H](CCCCNC(=O)[C@@H](N)CCCCNC(=O)[C@@H](N)CCCCNC(=O)CC[C@H](NC(=O)CC[C@H](NC(=O)CCCCCCCCCCCOc1ccc(C(=O)O)cc1)C(=O)O)C(=O)O)NC(=O)[C@H](C)NC(=O)[C@H](C)NC(=O)[C@H](CCC(N)=O)NC(=O)CNC(=O)[C@H](CCC(=O)O)NC(=O)[C@H](CC(C)C)NC(=O)[C@H](Cc1ccc(O)cc1)NC(=O)[C@H](CO)NC(=O)[C@H](CO)NC(=O)[C@@H](NC(=O)[C@H](CC(=O)O)NC(=O)[C@H](CO)NC(=O)[C@@H](NC(=O)[C@H](Cc1ccccc1)NC(=O)[C@@H](NC(=O)CNC(=O)[C@H](CCC(=O)O)NC(=O)C(C)(C)NC(=O)[C@@H](N)Cc1c[nH]cn1)[C@@H](C)O)[C@@H](C)O)C(C)C)C(=O)N[C@@H](C)C(=O)N[C@@H](Cc1c[nH]c2ccccc12)C(=O)N[C@@H](CC(C)C)C(=O)N[C@H](C(=O)N[C@@H](CCCNC(=N)N)C(=O)NCC(=O)N[C@@H](CCCNC(=N)N)C(=O)N[C@@H](CCCCNC(=O)[C@@H](N)CCCCNC(=O)[C@@H](N)CCCCNC(=O)CC[C@H](NC(=O)CC[C@H](NC(=O)CCCCCCCCCCCOc1ccc(C(=O)O)cc1)C(=O)O)C(=O)O)C(=O)O)C(C)C` [Example 16, N^ε26-[(2S)-2-amino-6-[[(2S)-2-amino-6-[[(4S)-4-carboxy-4-[[(4S)-4-carboxy-4-[12-(4-carboxyphenoxy)dodecanoylamino]butanoyl]amino]butanoyl]amino]hexanoyl]amino]hexanoyl], N^ε37-[(2S)-2-amino-6-[[(2S)-2-amino-6-[[(4S)-4-carboxy-4-[[(4S)-4-carboxy-4-[12-(4-carboxyphenoxy)dodecanoylamino]butanoyl]amino]butanoyl]amino]hexanoyl]amino]hexanoyl]-[Aib^8,Arg^34,Lys^37]-GLP-1-(7-37)-peptide], the EC50 at human GLP-1 receptor [1] (setting [4]) came to 0.0033 nM; on human GLP-1 receptor [1] (setting [3]), 0.047 nM. In addition, the “EC50/pM (ratio 1% HSA/0% HSA)” value at human GLP-1 receptor [1] worked out at 14. For the same compound, the IC50 on human GLP-1 receptor [2] (setting [5]) amounted to 199 nM; at human GLP-1 receptor [2] (setting [6]), 0.24 nM.
